According to patent publication US8324405B2, “Chromene derivatives and use thereof as HIF hydroxylase activity inhibitors” (FibroGen, Inc., priority 2008, dated 2012):

The compounds below were run against T1, HIF-PH2 (Homo sapiens, UniProt Q9GZT9) (assay: HIF-PH assay (14CO2 capture, peptide-dependent turnover)). Conditions: Concentration 7.41 μM.
T1 construct: made in house; host or cells: insect Hi5 cells
Assay type: biochemical
Excerpt: Ketoglutaric acid α-[1-^14C]-sodium salt, alpha-ketoglutaric acid sodium salt, and HPLC purified peptide may be obtained from commercial sources, e.g., Perkin-Elmer (Wellesley Mass.), Sigma-Aldrich, and SynPep Corp. (Dublin Calif.), respectively. Peptides for use in the assay may be fragments of HIFα as described above or as disclosed in International Publication WO 2005/118836, incorporated by reference herein. For example, a HIF peptide for use in the HIF-PH assay is [methoxycoumarin]-DLDLEALAPYIPADDDFQL-amide. HIF-PH, e.g., HIF-PH2 (EGLN1), can be expressed in, e.g., insect Hi5 cells, and partially purified, e.g., through a SP ion exchange chromatography column. Enzyme activity is determined by capturing ^14CO2 using an assay described by Kivirikko and Myllyla (1982, Methods Enzymol. 82:245-304). Assay reactions contain 50 mM HEPES (pH 7.4), 100 μM α-ketoglutaric acid sodium salt, 0.30 μCi/mL ketoglutaric acid α-[1-^14C]-sodium salt, 40 μM FeSO4, 1 mM ascorbate, 1541.8 units/mL Catalase, with or without 50 μM peptide substrate and various concentrations of compound of the invention. Reactions are initiated by addition of HIF-PH enzyme.
The peptide-dependent percent turnover is calculated by subtracting percent turnover in the absence of peptide from percent turnover in the presence of substrate peptide. Percent inhibition and IC50 are calculated using peptide-dependent percent turnover at given inhibitor concentrations. Calculation of IC50 values for each inhibitor is conducted using GraFit software (Erithacus Software Ltd., Surrey UK).
Representative compounds of the invention were analyzed using the HIF-PH assay described above. Table I presents enzyme inhibition data for exemplary compounds against HIF-PH2, a representative HIF prolyl hydroxylase. By inhibiting HIF prolyl hydroxylase, compounds of the invention stabilize HIFα, which then combines with HIFβ to form an active transcription factor that increases expression of various genes involved in numerous beneficial cellular processes.

T1 sequence (Q9GZT9 whole entry, species assumed): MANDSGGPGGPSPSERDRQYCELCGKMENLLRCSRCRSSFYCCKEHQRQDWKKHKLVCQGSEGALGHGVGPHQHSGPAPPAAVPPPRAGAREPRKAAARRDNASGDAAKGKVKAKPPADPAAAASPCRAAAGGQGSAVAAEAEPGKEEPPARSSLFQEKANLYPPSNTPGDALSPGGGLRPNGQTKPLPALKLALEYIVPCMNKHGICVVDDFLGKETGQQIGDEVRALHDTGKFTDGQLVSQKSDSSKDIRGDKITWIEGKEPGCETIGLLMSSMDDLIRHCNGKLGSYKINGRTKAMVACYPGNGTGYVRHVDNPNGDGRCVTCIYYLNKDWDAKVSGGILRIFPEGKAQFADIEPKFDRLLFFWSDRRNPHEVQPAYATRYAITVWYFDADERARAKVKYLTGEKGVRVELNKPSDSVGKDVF

Row | inhibition at 7.41 µM [%] | Compound
1 | 94 | COc1ccc(-c2ccc3oc(=O)c(C(=O)NCC(=O)O)c(O)c3c2)cc1 [Example 3, {[4-Hydroxy-6-(4-methoxy-phenyl)-2-oxo-2H-chromene-3-carbonyl]-amino}-acetic acid]
2 | 100 | O=C(O)CNC(=O)c1c(O)c2cc(-c3ccc(Oc4ccccc4)cc3)ccc2oc1=O [Example 4, {[4-Hydroxy-2-oxo-6-(4-phenoxy-phenyl)-2H-chromene-3-carbonyl]-amino}-acetic acid]
3 | 96 | O=C(O)CNC(=O)c1c(O)c2cc(-c3ccc(C(F)(F)F)cc3)ccc2oc1=O [Example 5, {[4-Hydroxy-2-oxo-6-(4-trifluoromethyl-phenyl)-2H-chromene-3-carbonyl]-amino}-acetic acid]

Same assay, conditions: Concentration 12.50 μM

Row | Compound | inhibition at 12.5 µM [%]
4 | Cc1cc2oc(=O)c(C(=O)NCC(=O)O)c(O)c2cc1C [Example 15, [(4-Hydroxy-6,7-dimethyl-2-oxo-2H-chromene-3-carbonyl)-amino]-acetic acid] | 98
5 | O=C(O)CNC(=O)c1c(O)c2cc(F)ccc2oc1=O [Example 16, [(6-Fluoro-4-hydroxy-2-oxo-2H-chromene-3-carbonyl)-amino]-acetic acid] | 96
6 | O=C(O)CNC(=O)c1c(O)c2ccc(F)cc2oc1=O [Example 17, [(7-Fluoro-4-hydroxy-2-oxo-2H-chromene-3-carbonyl)-amino]-acetic acid] | 98
7 | O=C(O)CNC(=O)c1c(O)c2cc(F)cc(F)c2oc1=O [Example 18, [(6,8-Difluoro-4-hydroxy-2-oxo-2H-chromene-3-carbonyl)-amino]-acetic acid] | 95

Next, values leading:

Row | inhibition at 12.5 µM [%] | Compound
8 | 99 | O=C(O)CNC(=O)c1c(O)c2cc(-c3cccs3)ccc2oc1=O [Example 27, [(4-Hydroxy-2-oxo-6-thiophen-2-yl-2H-chromene-3-carbonyl)-amino]-acetic acid]
9 | 100 | O=C(O)CNC(=O)c1c(O)c2cc(-c3ccco3)ccc2oc1=O [Example 28, [(6-Furan-2-yl-4-hydroxy-2-oxo-2H-chromene-3-carbonyl)-amino]-acetic acid]
10 | 100 | O=C(O)CNC(=O)c1c(O)c2ccc3ccccc3c2oc1=O [Example 31, [(4-Hydroxy-2-oxo-2H-benzo[h]chromene-3-carbonyl)-amino]-acetic acid]
11 | 98 | O=C(O)CNC(=O)c1c(O)c2cc3ccccc3cc2oc1=O [Example 32, [(4-Hydroxy-2-oxo-2H-benzo[g]chromene-3-carbonyl)-amino]-acetic acid]
12 | 100 | O=C(O)CNC(=O)c1c(O)c2cc3cc(Br)ccc3c(Br)c2oc1=O [Example 34, [(7,10-Dibromo-4-hydroxy-2-oxo-2H-benzo[g]chromene-3-carbonyl)-amino]-acetic acid]
13 | 97 | Cc1ccc2c(O)c(C(=O)NCC(=O)O)c(=O)oc2c1 [Example 35, [(4-Hydroxy-7-methyl-2-oxo-2H-chromene-3-carbonyl)-amino]-acetic acid]

Same assay, conditions: Concentration 22.22 μM

Row | inhibition at 22.22 µM [%] | % Inhibition HIF-PH2 [%] | Compound
14 | 96 | – | O=C(O)CNC(=O)c1c(O)c2ccccc2oc1=O [Example 1, [(4-Hydroxy-2-oxo-2H-chromene-3-carbonyl)-amino]-acetic acid]
15 | 97 | – | O=C(O)CNC(=O)c1c(O)c2cc(Br)ccc2oc1=O [Example 2, [(6-Bromo-4-hydroxy-2-oxo-2H-chromene-3-carbonyl)-amino]-acetic acid]
16 | 100 | – | O=C(O)CNC(=O)c1c(O)c2cc(-c3ccc(OCc4ccccc4)cc3)ccc2oc1=O [Example 8, {[6-(4-Benzyloxy-phenyl)-4-hydroxy-2-oxo-2H-chromene-3-carbonyl]-amino}-acetic acid]
17 | 100 | – | O=C(O)CNC(=O)c1c(O)c2ccc(Oc3ccccc3)cc2oc1=O [Example 9, [(4-Hydroxy-2-oxo-7-phenoxy-2H-chromene-3-carbonyl)-amino]-acetic acid]
18 | 100 | – | Cc1ccc2c(O)c(C(=O)NCC(=O)O)c(=O)oc2c1C [Example 10, [(4-Hydroxy-7,8-dimethyl-2-oxo-2H-chromene-3-carbonyl)-amino]-acetic acid]
19 | 100 | – | O=C(O)CNC(=O)c1c(O)c2ccc(-c3ccc(Oc4ccccc4)cc3)cc2oc1=O [Example 11, {[4-Hydroxy-2-oxo-7-(4-phenoxy-phenyl)-2H-chromene-3-carbonyl]-amino}-acetic acid]
20 | – | 100 | C[C@H](NC(=O)c1c(O)c2ccc(-c3ccc(Oc4ccccc4)cc3)cc2oc1=O)C(=O)O [Example 12, 2-S-{[4-Hydroxy-2-oxo-7-(4-phenoxy-phenyl)-2H-chromene-3-carbonyl]-amino}-propionic acid]
21 | 96 | – | O=C(O)CNC(=O)c1c(O)c2cc(Cl)cc(Cl)c2oc1=O [Example 13, [(6,8-Dichloro-4-hydroxy-2-oxo-2H-chromene-3-carbonyl)-amino]-acetic acid]

Same assay, conditions: Concentration 50.00 μM

Row | inhibition at 50 µM [%] | Compound
22 | 99 | Cc1cc(Cl)cc2c(O)c(C(=O)NCC(=O)O)c(=O)oc12 [Example 19, [(6-Chloro-4-hydroxy-8-methyl-2-oxo-2H-chromene-3-carbonyl)-amino]-acetic acid]
23 | 99 | Cc1cccc2c(O)c(C(=O)NCC(=O)O)c(=O)oc12 [Example 20, [(4-Hydroxy-8-methyl-2-oxo-2H-chromene-3-carbonyl)-amino]-acetic acid]
24 | 99 | Cn1nc(C(F)(F)F)cc1-c1cc(Cl)cc2c(O)c(C(=O)NCC(=O)O)c(=O)oc12 [Example 21, {[6-Chloro-4-hydroxy-8-(2-methyl-5-trifluoromethyl-2H-pyrazol-3-yl)-2-oxo-2H-chromene-3-carbonyl]-amino}-acetic acid]
25 | 99 | O=C(O)CNC(=O)c1c(O)c2cc(Cl)cc(-c3cccnc3)c2oc1=O [Example 23, [(6-Chloro-4-hydroxy-2-oxo-8-pyridin-3-yl-2H-chromene-3-carbonyl)-amino]-acetic acid]
26 | 97 | O=C(O)CNC(=O)c1c(O)c2cc(-c3cccnc3)ccc2oc1=O [Example 29, [(4-Hydroxy-2-oxo-6-pyridin-3-yl-2H-chromene-3-carbonyl)-amino]-acetic acid]
27 | 99 | O=C(O)CNC(=O)c1c(O)c2cc(-c3ccccn3)ccc2oc1=O [Example 30, [(4-Hydroxy-2-oxo-6-pyridin-2-yl-2H-chromene-3-carbonyl)-amino]-acetic acid]
28 | 99 | O=C(O)CNC(=O)c1c(O)c2c(OCc3ccccc3)cccc2oc1=O [Example 46, [(5-Benzyloxy-4-hydroxy-2-oxo-2H-chromene-3-carbonyl)-amino]-acetic acid]
29 | 99 | O=C(O)CNC(=O)c1c(O)c2c(OCc3ccc(F)cc3)cccc2oc1=O [Example 47, {[5-(4-Fluoro-benzyloxy)-4-hydroxy-2-oxo-2H-chromene-3-carbonyl]-amino}-acetic acid]
30 | 99 | Cc1ccc(COc2cccc3oc(=O)c(C(=O)NCC(=O)O)c(O)c23)cc1 [Example 48, {[4-Hydroxy-5-(4-methyl-benzyloxy)-2-oxo-2H-chromene-3-carbonyl]-amino}-acetic acid]

Same assay, conditions: Concentration 200.00 μM

Row | inhibition at 200 µM [%] | Compound
31 | 100 | Cc1ccc2oc(=O)c(C(=O)NCC(=O)O)c(O)c2c1 [Example 6, [(4-Hydroxy-6-methyl-2-oxo-2H-chromene-3-carbonyl)-amino]-acetic acid]
32 | 100 | O=C(O)CNC(=O)c1c(O)c2cccc(Cl)c2oc1=O [Example 7, [(8-Chloro-4-hydroxy-2-oxo-2H-chromene-3-carbonyl)-amino]-acetic acid]
33 | 43 | CCOC(=O)CNC(=O)c1c(O)c2cc(Cl)cc(Cl)c2oc1=O [Example 14, [(6,8-Dichloro-4-hydroxy-2-oxo-2H-chromene-3-carbonyl)-amino]-acetic acid ethyl ester]
34 | 100 | O=C(O)CNC(=O)c1c(O)c2c(ccc3ccccc32)oc1=O [Example 33, [(1-Hydroxy-3-oxo-3H-benzo[f]chromene-2-carbonyl)-amino]-acetic acid]
